Measurements as given in patent US9974761B2, “Medications for deposition on biological surfaces” (The Procter & Gamble Company, priority 2014, dated 2018).

Molecular target: T1, human TRPM8 (UniProt Q8R4D5)
T1 construct: Receptor Activity TRPM8; Receptor Activity TRPM8; other: test compound at 0.001%; relative to WS5 control (30 microMolar); HEK 293 cells; other: test compound at 0.004%; other: test compound at 5.2E−5%; relative to WS5 control
Experiment: TRPM8 Protocol-FLIPR Assay (intracellular Ca2+)
Assay type: cell-based
Details: for TRPM8 Time Course Activity 50 sec: fluorescence at 50 sec; for TRPM8 Time Course Activity 50 sec % of WS5: vs 30 uM WS-5

CC(C)[C@@H]1CC[C@@H](C)C[C@H]1C(=O)NCC(NC(=O)[C@@H](C)N)c1ccccc1 (single isomer, unassigned) [Compound 28 fraction 1]
TRPM8 Time Course Activity 50 sec (dose 6.1 nM): 884.0
TRPM8 Time Course Activity 50 sec (dose 12.2 nM): 3018.0
TRPM8 Time Course Activity 50 sec (dose 24.4 nM): 1936.0
TRPM8 Time Course Activity 50 sec (dose 48.8 nM): 2916.0
TRPM8 Time Course Activity 50 sec (dose 97.6 nM): 3963.0
TRPM8 Time Course Activity 50 sec (dose 195 nM): 5418.0
TRPM8 Time Course Activity 50 sec % of WS5 (dose 390 nM): 75.5%
TRPM8 Time Course Activity 50 sec (dose 390 nM): 7592.0
TRPM8 Time Course Activity 50 sec % of WS5 (dose 781 nM): 97.3%
TRPM8 Time Course Activity 50 sec (dose 781 nM): 9786.0
TRPM8 Time Course Activity 50 sec % of WS5 (dose 1.563 uM): 110.5%
TRPM8 Time Course Activity 50 sec (dose 1.563 uM): 11114.0
TRPM8 Time Course Activity 50 sec % of WS5 (dose 3.125 uM): 115.7%
TRPM8 Time Course Activity 50 sec (dose 3.125 uM): 11637.0
TRPM8 Time Course Activity 50 sec % of WS5 (dose 6.25 uM): 121.6%
TRPM8 Time Course Activity 50 sec (dose 6.25 uM): 12229.0
TRPM8 Time Course Activity 50 sec % of WS5 (dose 12.5 uM): 123.6%
TRPM8 Time Course Activity 50 sec (dose 12.5 uM): 12430.0
TRPM8 Time Course Activity 50 sec % of WS5 (dose 25 uM): 129.7%
TRPM8 Time Course Activity 50 sec (dose 25 uM): 13046.0
TRPM8 Time Course Activity 50 sec % of WS5 (dose 50 uM): 123.5%
TRPM8 Time Course Activity 50 sec (dose 50 uM): 12419.0
TRPM8 Time Course Activity 50 sec % of WS5 (dose 100 uM): 125.7%
TRPM8 Time Course Activity 50 sec (dose 100 uM): 12646.0
